# Reference: PubChem BioAssay AID2060504 (Molecular Pharmacology Branch, DTP, NCI, 2025)
# Test system: 636577-100-R-J1-PDC complex spheroid viability
# Experiment: Anticancer human tumor 636577-100-R-J1-PDC patient-derived endometrial adenocarcinoma cell line growth inhibition [GQUAD]
# Details: for IC50: curve of first compound; for viability, T/C: stronger effect = lower value
# How it was run: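 Tumor cells were grown as complex spheroids with HUVEC endothelial cells and mesenchymal stem cells as stroma. G-quadruplex stabilizers were combined with targeted agents over half-log dilutions from near the clinical Cmax, or from 10 microM.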
# [1] = second compound 0.0316 µM, first compound 0.0316 µM
# [2] = second compound 0.0316 µM, first compound 0.316 µM
# [3] = second compound 0.1 µM, first compound 0.0316 µM
# [4] = second compound 0.1 µM, first compound 0.316 µM
# [5] = second compound 0.316 µM, first compound 0.0316 µM
# [6] = second compound 0.316 µM, first compound 0.316 µM
# [7] = second compound 1 µM, first compound 0.0316 µM
# [8] = second compound 1 µM, first compound 0.316 µM
# [9] = second compound 3.16 µM, first compound 0.0316 µM
# [10] = second compound 3.16 µM, first compound 0.316 µM
# [11] = second compound 10 µM, first compound 0.0316 µM
# [12] = second compound 10 µM, first compound 0.316 µM
# [13] = second compound 0.0316 µM, first compound 0.1 µM
# [14] = second compound 0.0316 µM, first compound 1 µM
# [15] = second compound 0.0316 µM, first compound 3.16 µM
# [16] = second compound 0.0316 µM, first compound 10 µM
# [17] = second compound 0.1 µM, first compound 0.1 µM
# [18] = second compound 0.1 µM, first compound 1 µM
# [19] = second compound 0.1 µM, first compound 3.16 µM
# [20] = second compound 0.1 µM, first compound 10 µM
# [21] = second compound 0.316 µM, first compound 0.1 µM
# [22] = second compound 0.316 µM, first compound 1 µM
# [23] = second compound 0.316 µM, first compound 3.16 µM
# [24] = second compound 0.316 µM, first compound 10 µM
# [25] = second compound 1 µM, first compound 0.1 µM
# [26] = second compound 1 µM, first compound 1 µM
# [27] = second compound 1 µM, first compound 3.16 µM
# [28] = second compound 1 µM, first compound 10 µM
# [29] = second compound 3.16 µM, first compound 0.1 µM
# [30] = second compound 3.16 µM, first compound 1 µM
# [31] = second compound 3.16 µM, first compound 3.16 µM
# [32] = second compound 3.16 µM, first compound 10 µM
# [33] = second compound 10 µM, first compound 0.1 µM
# [34] = second compound 10 µM, first compound 1 µM
# [35] = second compound 10 µM, first compound 3.16 µM
# [36] = second compound 10 µM, first compound 10 µM
# 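Note: viability read after seven days of drug exposure.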
# 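Throughout, for viability, T/C: luminescence signal used as a proxy for viable cells; 100% = DMSO vehicle control wells.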
smiles,measurement,setting,value
CCc1c2c(nc3ccc(O)cc13)-c1cc3c(c(=O)n1C2)COC(=O)[C@]3(O)CC + CN(C)c1ccc(Nc2c3ccc(NC(=O)CCN4CCCC4)cc3nc3cc(NC(=O)CCN4CCCC4)ccc23)cc1,IC50,second compound 0.0316 µM,< 0.000999 µM
same,IC50,second compound 0.1 µM,< 0.000999 µM
same,IC50,second compound 0.316 µM,< 0.000999 µM
same,IC50,second compound 1 µM,< 0.000999 µM
same,IC50,second compound 3.16 µM,< 0.000999 µM
same,IC50,second compound 10 µM,< 0.000999 µM
same,"viability, T/C","second compound 0.0316 µM, first compound 0.000999 µM",46.8%
same,"viability, T/C","second compound 0.0316 µM, first compound 0.00316 µM",23.4%
same,"viability, T/C","second compound 0.0316 µM, first compound 0.00999 µM",26%
same,"viability, T/C",[1],16.6%
same,"viability, T/C","second compound 0.0316 µM, first compound 0.0999 µM",17.7%
same,"viability, T/C",[2],12.4%
same,"viability, T/C","second compound 0.1 µM, first compound 0.000999 µM",43.7%
same,"viability, T/C","second compound 0.1 µM, first compound 0.00316 µM",21.6%
same,"viability, T/C","second compound 0.1 µM, first compound 0.00999 µM",22.2%
same,"viability, T/C",[3],18.1%
same,"viability, T/C","second compound 0.1 µM, first compound 0.0999 µM",17%
same,"viability, T/C",[4],12.9%
same,"viability, T/C","second compound 0.316 µM, first compound 0.000999 µM",41.9%
same,"viability, T/C","second compound 0.316 µM, first compound 0.00316 µM",23.1%
same,"viability, T/C","second compound 0.316 µM, first compound 0.00999 µM",20.3%
same,"viability, T/C",[5],21.1%
same,"viability, T/C","second compound 0.316 µM, first compound 0.0999 µM",19.2%
same,"viability, T/C",[6],13.2%
same,"viability, T/C","second compound 1 µM, first compound 0.000999 µM",39.4%
same,"viability, T/C","second compound 1 µM, first compound 0.00316 µM",21.4%
same,"viability, T/C","second compound 1 µM, first compound 0.00999 µM",24.2%
same,"viability, T/C",[7],22.6%
same,"viability, T/C","second compound 1 µM, first compound 0.0999 µM",19.4%
same,"viability, T/C",[8],13.4%
same,"viability, T/C","second compound 3.16 µM, first compound 0.000999 µM",29.8%
same,"viability, T/C","second compound 3.16 µM, first compound 0.00316 µM",22%
same,"viability, T/C","second compound 3.16 µM, first compound 0.00999 µM",19.5%
same,"viability, T/C",[9],18.4%
same,"viability, T/C","second compound 3.16 µM, first compound 0.0999 µM",16.8%
same,"viability, T/C",[10],9.28%
same,"viability, T/C","second compound 10 µM, first compound 0.000999 µM",4.84%
same,"viability, T/C","second compound 10 µM, first compound 0.00316 µM",4.42%
same,"viability, T/C","second compound 10 µM, first compound 0.00999 µM",4.45%
same,"viability, T/C",[11],4.23%
same,"viability, T/C","second compound 10 µM, first compound 0.0999 µM",4.1%
same,"viability, T/C",[12],2.29%
CC(C)n1c(=O)n(C)c2cnc3cc(F)c(-c4ccc(OCCCN5CCCCC5)nc4)cc3c21 + Cc1[nH]c2ccc(F)cc2c1-c1nc2c3cccnc3c3ncccc3c2[nH]1,IC50,second compound 0.0316 µM,> 10 µM
same,IC50,second compound 0.1 µM,10 µM
same,IC50,second compound 0.316 µM,7.08 µM
same,IC50,second compound 1 µM,0.0316 µM
same,IC50,second compound 3.16 µM,3.59 µM
same,IC50,second compound 10 µM,6.96 µM
same,"viability, T/C",[1],73.1%
same,"viability, T/C",[13],74.1%
same,"viability, T/C",[2],88.2%
same,"viability, T/C",[14],30%
same,"viability, T/C",[15],99.5%
same,"viability, T/C",[16],52.4%
same,"viability, T/C",[3],74.4%
same,"viability, T/C",[17],91%
same,"viability, T/C",[4],70.8%
same,"viability, T/C",[18],37.9%
same,"viability, T/C",[19],69.7%
same,"viability, T/C",[20],48.6%
same,"viability, T/C",[5],80.9%
same,"viability, T/C",[21],96.9%
same,"viability, T/C",[6],60.6%
same,"viability, T/C",[22],58.2%
same,"viability, T/C",[23],87.7%
same,"viability, T/C",[24],38.5%
same,"viability, T/C",[7],57.2%
same,"viability, T/C",[25],43.3%
same,"viability, T/C",[8],60.9%
same,"viability, T/C",[26],54.3%
same,"viability, T/C",[27],98.5%
same,"viability, T/C",[28],46.8%
same,"viability, T/C",[9],57.1%
same,"viability, T/C",[29],54.3%
same,"viability, T/C",[10],59.3%
same,"viability, T/C",[30],70.8%
same,"viability, T/C",[31],47%
same,"viability, T/C",[32],29.8%
same,"viability, T/C",[11],71.9%
same,"viability, T/C",[33],50.6%
same,"viability, T/C",[12],85.5%
same,"viability, T/C",[34],89.3%
same,"viability, T/C",[35],70%
same,"viability, T/C",[36],40%
CC(C)n1c(=O)n(C)c2cnc3cc(F)c(-c4ccc(OCCCN5CCCCC5)nc4)cc3c21 + CN(C)c1ccc(Nc2c3ccc(NC(=O)CCN4CCCC4)cc3nc3cc(NC(=O)CCN4CCCC4)ccc23)cc1,IC50,second compound 0.0316 µM,> 10 µM
same,IC50,second compound 0.1 µM,> 10 µM
same,IC50,second compound 0.316 µM,8.49 µM
same,IC50,second compound 1 µM,4.9 µM
same,IC50,second compound 3.16 µM,< 0.0316 µM
same,IC50,second compound 10 µM,< 0.0316 µM
same,"viability, T/C",[1],121%
same,"viability, T/C",[13],101%
same,"viability, T/C",[2],127%
same,"viability, T/C",[14],49.5%
same,"viability, T/C",[15],93.8%
same,"viability, T/C",[16],53.5%
same,"viability, T/C",[3],128%
same,"viability, T/C",[17],102%
same,"viability, T/C",[4],109%
same,"viability, T/C",[18],74.9%
same,"viability, T/C",[19],82.1%
same,"viability, T/C",[20],52.4%
same,"viability, T/C",[5],67.6%
same,"viability, T/C",[21],81.7%
same,"viability, T/C",[6],103%
same,"viability, T/C",[22],63.6%
same,"viability, T/C",[23],71.7%
same,"viability, T/C",[24],46.6%
same,"viability, T/C",[7],60%
same,"viability, T/C",[25],67.8%
same,"viability, T/C",[8],75.9%
same,"viability, T/C",[26],57%
same,"viability, T/C",[27],61.6%
same,"viability, T/C",[28],33.5%
same,"viability, T/C",[9],39%
same,"viability, T/C",[29],36.2%
same,"viability, T/C",[10],30.2%
same,"viability, T/C",[30],27%
same,"viability, T/C",[31],20.6%
same,"viability, T/C",[32],14.5%
same,"viability, T/C",[11],7%
same,"viability, T/C",[33],5.49%
same,"viability, T/C",[12],4.48%
same,"viability, T/C",[34],2.77%
same,"viability, T/C",[35],2.25%
same,"viability, T/C",[36],0.79%
C#Cc1c(F)ccc2cc(O)cc(-c3ncc4c(N5CC6CCC(C5)N6)nc(OCC56CCCN5CC(F)C6)nc4c3F)c12 (stereo not drawn) + Cc1[nH]c2ccc(F)cc2c1-c1nc2c3cccnc3c3ncccc3c2[nH]1,IC50,second compound 0.0316 µM,6.4 µM
same,IC50,second compound 0.1 µM,4.77 µM
same,IC50,second compound 0.316 µM,4.54 µM
same,IC50,second compound 1 µM,1.75 µM
same,IC50,second compound 3.16 µM,< 0.0316 µM
same,IC50,second compound 10 µM,< 0.0316 µM
same,"viability, T/C",[1],88.5%
same,"viability, T/C",[13],99.4%
same,"viability, T/C",[2],87.9%
same,"viability, T/C",[14],78.7%
same,"viability, T/C",[15],66.7%
same,"viability, T/C",[16],39.9%
same,"viability, T/C",[3],108%
same,"viability, T/C",[17],93.7%
same,"viability, T/C",[4],80.7%
same,"viability, T/C",[18],59.5%
same,"viability, T/C",[19],59.8%
same,"viability, T/C",[20],41.2%
same,"viability, T/C",[5],74.3%
same,"viability, T/C",[21],61%
same,"viability, T/C",[6],72.8%
same,"viability, T/C",[22],78.6%
same,"viability, T/C",[23],56.1%
same,"viability, T/C",[24],36.7%
same,"viability, T/C",[7],53%
same,"viability, T/C",[25],78.2%
same,"viability, T/C",[8],80.5%
same,"viability, T/C",[26],51.8%
same,"viability, T/C",[27],44.2%
same,"viability, T/C",[28],28.1%
same,"viability, T/C",[9],24.1%
same,"viability, T/C",[29],23.5%
same,"viability, T/C",[10],23.5%
same,"viability, T/C",[30],22.6%
same,"viability, T/C",[31],19.3%
same,"viability, T/C",[32],12.7%
same,"viability, T/C",[11],31%
same,"viability, T/C",[33],39.9%
same,"viability, T/C",[12],38.8%
same,"viability, T/C",[34],28.5%
same,"viability, T/C",[35],24.9%
same,"viability, T/C",[36],15.8%
